A value given as a limit tells only on which side of the number the result lay.

T1 sequence (P22460 whole entry): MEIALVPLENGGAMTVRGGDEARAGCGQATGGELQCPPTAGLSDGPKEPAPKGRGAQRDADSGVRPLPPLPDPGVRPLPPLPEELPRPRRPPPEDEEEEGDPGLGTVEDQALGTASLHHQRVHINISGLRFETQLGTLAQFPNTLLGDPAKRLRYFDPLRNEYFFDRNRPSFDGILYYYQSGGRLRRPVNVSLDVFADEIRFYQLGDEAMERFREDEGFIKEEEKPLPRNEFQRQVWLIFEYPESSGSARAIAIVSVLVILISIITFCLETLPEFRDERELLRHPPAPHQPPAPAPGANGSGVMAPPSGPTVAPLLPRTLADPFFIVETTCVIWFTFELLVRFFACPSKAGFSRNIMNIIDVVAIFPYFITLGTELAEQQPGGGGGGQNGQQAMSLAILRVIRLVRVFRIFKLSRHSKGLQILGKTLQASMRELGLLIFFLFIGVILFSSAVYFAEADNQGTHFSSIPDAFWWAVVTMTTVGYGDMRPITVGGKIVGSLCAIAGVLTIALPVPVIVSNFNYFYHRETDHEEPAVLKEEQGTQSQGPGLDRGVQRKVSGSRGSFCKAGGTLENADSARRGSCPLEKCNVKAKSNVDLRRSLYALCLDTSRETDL

The assay concerns the target T1, Kv1.5 channels from humans (Homo sapiens, UniProt P22460).
T1 construct: expressed in transfected cells; host or cells: Xenopus laevis oocytes injected with in vitro synthesized RNA
Nature of the assay: Kv1.5 currents in Xenopus oocytes, 2-microelectrode voltage clamp. Format: cell-based. To be noted: human Kv1.5 expressed in Xenopus laevis oocytes; voltage jumps to 0 mV and 40 mV lasting 500 ms; room temperature; Hill equation. Here is the method: Kv1.5 channels from humans were expressed in Xenopus oocytes. To this end, oocytes from Xenopus laevis were first isolated and defolliculated. RNA coding for Kv1.5 synthesized in vitro was then injected into these oocytes. After a Kv1.5 protein expression for 1-7 days, Kv1.5 currents were measured on the oocytes using the 2-microelectrode voltage clamp technique. The Kv1.5 channels were in this case as a rule activated using voltage jumps to 0 mV and 40 mV lasting 500 ms. The bath was rinsed using a solution of the following composition: NaCl 96 mM, KCl 2 mM, CaCl2 1.8 mM, MgCl2 1 mM, HEPES 5 mM (titrated with NaOH to pH 7.4). These experiments were carried out at room temperature. The following were employed for data acquisition and analysis: Gene clamp amplifier (Axon Instruments, Foster City, USA) and MacLab D/A converter and software (ADInstruments, Castle Hill, Australia). The substances according to the invention were tested by adding them to the bath solution in different concentrations. The effects of the substances were calculated as the percentage inhibition of the Kv1.5 control current which was obtained when no substance was added to the solution. The data were then extrapolated using the Hill equation in order to determine the inhibition concentrations IC50 for the respective substances.
In turn, `CC(C)CCNC(=O)c1sccc1-c1ccccc1CNC(=O)OC(C)(C)C` [Example 1, tert-Butyl {2-[2-(3-methylbutylcarbamoyl)thiophen-3-yl]benzyl}carbamate] showed an IC50 of 4 µM. Next, `CC(C)(C)OC(=O)NCc1ccccc1-c1ccsc1C(=O)NCc1ccc(F)cc1F` [Example 2]: 5 µM; `CC(C)CCNC(=O)c1ccsc1-c1ccccc1CNC(=O)OC(C)(C)C` [Example 6]: less than 100 µM; `O=C(NCc1ccccc1-c1occc1C(=O)NCc1ccc(F)cc1F)OCc1ccccc1` [Example 18]: 5.2 µM. In turn, `CC(C)CCNC(=O)c1ccoc1-c1ccccc1CNC(=O)OCc1ccccc1` [Example 17] came in with a half-inhibitory concentration (IC50) of 2.2 µM. `COc1ccc(CC(=O)NCc2ccccc2-c2occc2C(=O)NCCC(C)C)cc1` [Example 26] returned an IC50 of 3.9 µM. `COc1ccc(CC(=O)NCc2ccccc2-c2ccsc2C(=O)NCCC(C)C)cc1` [Example 22] returned an IC50 of 1.7 µM. As for `COc1ccc(CC(=O)NCc2ccccc2-c2occc2C(=O)NCc2ccc(F)cc2F)cc1` [Example 27], the figure is 6.6 µM. In the case of `O=C(NCc1ccccc1-c1ccc(C(=O)NCc2ccc(F)cc2F)o1)OCc1ccccc1` [Example 19], the half-inhibitory concentration (IC50) was less than 100 µM. As to `COc1ccc(CC(=O)NCc2ccccc2-c2ccoc2C(=O)NCCC(C)C)cc1` [Example 20], the IC50 was less than 100 µM.

`CC(C)CCNC(=O)c1ccoc1-c1ccccc1CNC(=O)OC(C)(C)C` [Example 8] gave an IC50 of 5.2 µM. Compound `COc1ccc(CC(=O)NCc2ccccc2-c2ccc(C(=O)NCCC(C)C)o2)cc1` [Example 28] came in with an IC50 of less than 100 µM. As for `COc1ccc(CC(=O)NCc2ccccc2-c2ccc(C(=O)NCc3ccc(F)cc3F)o2)cc1` [Example 29], the figure is 4.2 µM; as for `CC(C)(C)OC(=O)NCc1ccccc1-c1occc1C(=O)NCc1ccc(F)cc1F` [Example 7], 10 µM; as for `CC(C)CCNC(=O)c1ccc(-c2ccccc2CNC(=O)OC(C)(C)C)o1` [Example 10], less than 100 µM. Next, `O=C(NCc1ccccc1-c1ccoc1C(=O)NCc1ccc(F)cc1F)OCc1ccccc1` [Example 14]: less than 100 µM; `O=C(NCc1ccccc1-c1sccc1C(=O)NCc1ccc(F)cc1F)OCc1ccccc1` [Example 16]: 1.9 µM. Next, `CC(C)CCNC(=O)c1occc1-c1ccccc1CNC(=O)OC(C)(C)C` [Example 4]: 10 µM. Regarding `CC(C)CCNC(=O)c1occc1-c1ccccc1CNC(=O)OCc1ccccc1` [Example 13], the 50% inhibitory concentration (IC50) came to 5.6 µM.

Compound `COc1ccc(CC(=O)NCc2ccccc2-c2ccoc2C(=O)NCc2ccc(F)cc2F)cc1` [Example 21] gave an IC50 of 3.9 µM. As for `CC(C)(C)OC(=O)NCc1ccccc1-c1ccoc1C(=O)NCc1ccc(F)cc1F` [Example 3], the figure is 9 µM. As for `O=C(NCc1ccccc1-c1ccsc1C(=O)NCc1ccc(F)cc1F)OCc1ccccc1` [Example 12], the figure is 2 µM. Next, `CC(C)(C)OC(=O)NCc1ccccc1-c1sccc1C(=O)NCc1ccc(F)cc1F` [Example 5]: 3.1 µM; `COc1ccc(CC(=O)NCc2ccccc2-c2sccc2C(=O)NCCC(C)C)cc1` [Example 24]: 2.2 µM.

Regarding `CC(C)CCNC(=O)c1sccc1-c1ccccc1CNC(=O)OCc1ccccc1` [Example 11, Benzyl {2-[2-(3-methylbutylcarbamoyl)thiophen-3-yl]-benzyl}carbamate], the half-maximal inhibitory concentration (IC50) turned out to be 3 µM. Next, `COc1ccc(CC(=O)NCc2ccccc2-c2ccsc2C(=O)NCc2ccc(F)cc2F)cc1` [Example 23]: 1.2 µM; `COc1ccc(CC(=O)NCc2ccccc2-c2sccc2C(=O)NCc2ccc(F)cc2F)cc1` [Example 25]: 1.5 µM. Next, `CC(C)CCNC(=O)c1ccsc1-c1ccccc1CNC(=O)OCc1ccccc1` [Example 15]: 1.2 µM; `CC(C)(C)OC(=O)NCc1ccccc1-c1ccc(C(=O)NCc2ccc(F)cc2F)o1` [Example 9]: less than 100 µM.

(Values after patent publication US6982279B2, “Arylated furan- and thiophenecarboxamides, processes for their preparation, their use as medicaments, and pharmaceutical preparations comprising them” (Aventis Pharm Deutschland GmbH, priority 2000, dated 2006).)
